In patent US8637525B2, “Compounds for the reduction of beta-amyloid production” (Bristol-Myers Squibb Company, priority 2009, dated 2014):
Structures can show the parent of a compound that is named as a salt. Where two headings read alike, the source gives them in different places.

Test system: Aβ1-42 production
Test: Cellular assay for inhibition of Aβ1-42 production (H4 APP751 SWE clone 8.20)
Assay type: cell-based
Conditions: H4 APP751 SWE clone 8.20 cells, 19 h incubation
Method: Cellular Assays for Inhibition of Aβ1-40 and Aβ1-42 Production
H4 cells stably transfected with APP751 containing the Swedish mutation (H4 APP751 SWE clone 8.20, developed at BMS) were maintained in log phase through twice weekly passage at a 1:20 split. […] Following incubation for 19 h in 5% CO2 at 37° C., plates were briefly centrifuged (1000 rpm, 5 min). A 10 μl aliquot from each well was transferred to a second assay plate (Costar 3709) for Aβ40 measurements. Antibody cocktails were freshly prepared by dilution into 40 mM Tris-HCl (pH 7.4) with 0.2% BSA and added to assay plates. For Aβ42 measurements, antibodies specific for the Aβ42 neoepitope (565, developed at BMS; conjugated to the Wallac reagent (Perkin Elmer)) and the N-terminal sequence of Aβ peptide (26D6, developed at SIBIA; conjugated to APC (Perkin Elmer)) were mixed and 20 μl of the mixture was added to each well of the incubated cell plate yielding a final concentration of 0.8 ng/well 565 and 75 ng/well 26D6. For the Aβ40 measurements, antibodies specific for the Aβ40 neoepitope (TSD, developed at BMS; conjugated to the Wallac reagent (Perkin Elmer)) and 26D6 as described above were mixed and 20 μl of the mixture was added to the 10 μl aliquots which had been removed previously from the cell plate yielding a final concentration of 1.6 ng/well TSD and 17.5 ng/well 26D6. Assay plates containing antibodies were sealed with aluminum foil and incubated overnight at 4° C. Signal was determined using a Viewlux counter (Perkin Elmer) and IC50 values determined using curve fitting in CurveMaster (Excel Fit based).

[1] = class symbols, read-out: Activity Rating (Aβ42 cellular IC50)
[2] = 19 h, read-out: Activity Rating (Aβ42 cellular IC50), numeric value
[3] = 19 h, class symbols, read-out: Activity Rating (Aβ42 cellular IC50)

| Structure (SMILES) | IC50 [1] [nM] | IC50 [3] [nM] | also measured |
| --- | --- | --- | --- |
| COc1cc(Nc2nc3c(c(N(C)C)n2)COCC3c2ccc(Cl)cc2)ccc1-n1cnc(Cl)c1 (single isomer, unassigned) [Example 65B, N^2-(4-(4-chloro-1H-imidazol-1-yl)-3-methoxyphenyl)-8-(4-chlorophenyl)-N^4,N^4-dimethyl-7,8-dihydro-5H-pyrano[4,3-d]pyrimidine-2,4-diamine] |  |  | IC50 (read-out: Activity Rating (Aβ42 cellular IC50), numeric value): 160 nM |
| CCNc1nc(Nc2ccc(-n3cnc(Cl)c3)c(OC)c2)nc2c1COCC2c1ccc(F)c(F)c1 (stereo not shown) [Example 113B, N2-(4-(4-chloro-1H-imidazol-1-yl)-3-methoxyphenyl)-8-(3,4-difluorophenyl)-N4-ethyl-7,8-dihydro-5H-pyrano[4,3-d]pyrimidine-2,4-diamine] | 10 to 100 |  |  |
| CCNc1nc(Nc2ccc(-n3ncnc3C)c(F)c2)nc2c1COC2c1ccc(F)cc1 (single isomer, unassigned) [Example 78A, N^4-ethyl-N^2-(3-fluoro-4-(5-methyl-1H-1,2,4-triazol-1-yl)phenyl)-7-(4-fluorophenyl)-5,7-dihydrofuro[3,4-d]pyrimidine-2,4-diamine] |  |  | IC50 [2]: 19 nM |
| CNc1nc(Nc2ccc(-n3ncnc3C)c(F)c2)nc2c1COCC2c1ccc(Cl)cc1 (single isomer, unassigned) [Example 69A, 8-(4-chlorophenyl)-N^2-(3-fluoro-4-(5-methyl-1H-1,2,4-triazol-1-yl)phenyl)-N^4-methyl-7,8-dihydro-5H-pyrano[4,3-d]pyrimidine-2,4-diamine] | 1.5 to 9.9 |  |  |
| CCNc1nc(Nc2ccc(-n3cnc(Cl)c3)c(OC)c2)nc2c1CCN(C(C)=O)C2c1ccc(F)cc1 (stereo not shown) [Example 171, 1-(2-(4-(4-chloro-1H-imidazol-1-yl)-3-methoxyphenylamino)-4-(ethylamino)-8-(4-fluorophenyl)-5,6-dihydropyrido[3,4-d]pyrimidin-7(8H)-yl)ethanone] |  |  | IC50 [2]: 16 nM |
| COc1cc(Nc2nc(N[C@H](C)C3CC3)c3c(n2)C(c2ccc(C(F)(F)F)cc2)COC3)ccc1-n1cnc(Cl)c1 (stereo partly drawn) [Example 117, N2-(4-(4-chloro-1H-imidazol-1-yl)-3-methoxyphenyl)-N4-((R)-1-cyclopropylethyl)-8-(4-(trifluoromethyl)phenyl)-7,8-dihydro-5H-pyrano[4,3-d]pyrimidine-2,4-diamine, TFA] |  |  | IC50 [2]: 45 nM |
| CC#Cc1ccc(Nc2nc(NC)c3c(n2)C(c2ccc(F)cc2)CC3)cc1 (stereo not shown) [Example 260, 7-(4-fluorophenyl)-N4-methyl-N2-(4-(prop-1-ynyl)phenyl)-6,7-dihydro-5H-cyclopenta[d]pyrimidine-2,4-diamine] |  |  | IC50 [2]: 860 nM |
| COc1cc(Nc2nc(NC3CCC3)c3c(n2)C(c2ccccc2)CC3)ccc1-n1cnc(Cl)c1 (stereo not shown) [Example 9, N2-(4-(4-chloro-1H-imidazol-1-yl)-3-methoxyphenyl)-N4-cyclobutyl-7-phenyl-6,7-dihydro-5H-cyclopenta[d]pyrimidine-2,4-diamine] |  |  | IC50 [2]: 8.1 nM |
| COc1cc(Nc2nc3c(c(N4CC(F)C4)n2)CCC3c2ccccc2)ccc1-n1cnc(Cl)c1 (stereo not shown) [Example 182A, N-(4-(4-chloro-1H-imidazol-1-yl)-3-methoxyphenyl)-4-(3-fluoroazetidin-1-yl)-7-phenyl-6,7-dihydro-5H-cyclopenta[d]pyrimidin-2-amine] | 1.5 to 9.9 |  |  |
| COc1cc(Nc2nc3c(c(N(C)C)n2)COCC3c2ccccc2)ccc1-n1cnc(Cl)c1 (single isomer, unassigned) [Example 53B, N^2-(4-(4-Chloro-1H-imidazol-1-yl)-3-methoxyphenyl)-N^4,N^4-dimethyl-8-phenyl-7,8-dihydro-5H-pyrano[4,3-d]pyrimidine-2,4-diamine] | 10 to 100 |  |  |
| CNc1nc(Nc2ccc(-n3cnc(C)n3)c(OC)c2)nc2c1CCC2c1ccc(F)cc1 (single isomer, unassigned) [Example 44A, 7-(4-fluorophenyl)-N2-(3-methoxy-4-(3-methyl-1H-1,2,4-triazol-1-yl)phenyl)-N4-methyl-6,7-dihydro-5H-cyclopenta[d]pyrimidine-2,4-diamine] |  | 1.5 to 9.9 |  |
| CNc1nc(Nc2ccc(-n3cnc(Cl)c3)c(OC)c2)nc2c1CN(S(C)(=O)=O)CC2c1ccccc1 (stereo not shown) [Example 129A, N2-(4-(4-chloro-1H-imidazol-1-yl)-3-methoxyphenyl)-N4-methyl-6-(methylsulfonyl)-8-phenyl-5,6,7,8-tetrahydropyrido[4,3-d]pyrimidine-2,4-diamine] |  | 1.5 to 9.9 |  |
| COc1cc(Nc2nc3c(c(N4CCC(F)(F)C4)n2)CCC3c2cc(F)c(F)c(F)c2)ccc1-n1cnc(Cl)c1 (single isomer, unassigned) [Example 107B, N-(4-(4-chloro-1H-imidazol-1-yl)-3-methoxyphenyl)-4-(3,3-difluoropyrrolidin-1-yl)-7-(3,4,5-trifluorophenyl)-6,7-dihydro-5H-cyclopenta[d]pyrimidin-2-amine] | 100 to 1000 |  |  |
| COc1cc(Nc2nc3c(c(N4CC=C(F)CC4)n2)CCC3c2ccc(F)cc2)ccc1-n1cnc(Cl)c1 (stereo not shown) [Example 40A, N-(4-(4-chloro-1H-imidazol-1-yl)-3-methoxyphenyl)-4-(4-fluoro-5,6-dihydropyridin-1(2H)-yl)-7-(4-fluorophenyl)-6,7-dihydro-5H-cyclopenta[d]pyrimidin-2-amine] | 1.5 to 9.9 |  |  |
| CNc1nc(Nc2ccc(-n3cnc(Cl)c3)c(OC)c2)nc2c1CN(S(C)(=O)=O)CC2c1ccc(F)cc1 (stereo not shown) [Example 154, N2-(4-(4-chloro-1H-imidazol-1-yl)-3-methoxyphenyl)-8-(4-fluorophenyl)-N4-methyl-6-(methylsulfonyl)-5,6,7,8-tetrahydropyrido[4,3-d]pyrimidine-2,4-diamine] | 10 to 100 |  |  |
| CCN(C)c1nc(Nc2ccc(-n3cnc(Cl)c3)c(OC)c2)nc2c1CCC2c1ccccc1 (single isomer, unassigned) [Example 5B, N^2-(4-(4-chloro-1H-imidazol-1-yl)-3-methoxyphenyl)-N^4-ethyl-N^4-methyl-7-phenyl-6,7-dihydro-5H-cyclopenta[d]pyrimidine-2,4-diamine] | 10 to 100 |  |  |
| CCNc1nc(Nc2ccc(-n3cnc(Cl)c3)c(OC)c2)nc2c1CCC2c1ccc(OC(F)(F)F)cc1 (racemic) [Example 98, N^2-(4-(4-Chloro-1H-imidazol-1-yl)-3-methoxyphenyl)-N^4-ethyl-7-(4-(trifluoromethoxy)phenyl)-6,7-dihydro-5H-cyclopenta[d]pyrimidine-2,4-diamine] |  | 10 to 100 |  |
| COc1cc(Nc2nc3c(c(N(C)C(C)=O)n2)CCC3c2ccccc2)ccc1-n1cnc(Cl)c1 (stereo not shown) [Example 212, N-(2-(4-(4-chloro-1H-imidazol-1-yl)-3-methoxyphenylamino)-7-phenyl-6,7-dihydro-5H-cyclopenta[d]pyrimidin-4-yl)-N-methylacetamide] |  |  | IC50 [2]: 33 nM |

More lines, main results first:

| IC50 [1] [nM] | IC50 [3] [nM] | Structure (SMILES) | also measured |
| --- | --- | --- | --- |
|  | 10 to 100 | CNc1nc(Nc2ccc(-n3cnc(C)n3)c(OC)c2)nc2c1CCC2c1ccc(F)cc1F (stereo not shown) [Example 193, 7-(2,4-difluorophenyl)-N2-(3-methoxy-4-(3-methyl-1H-1,2,4-triazol-1-yl)phenyl)-N4-methyl-6,7-dihydro-5H-cyclopenta[d]pyrimidine-2,4-diamine] |  |
|  | 10 to 100 | CNc1nc(Nc2ccc(-n3cnc(C(F)F)c3)c(OC)c2)nc2c1CCC2c1ccc(F)cc1 (stereo not shown) [Example 208, N2-(4-(4-(difluoromethyl)-1H-imidazol-1-yl)-3-methoxyphenyl)-7-(4-fluorophenyl)-N4-methyl-6,7-dihydro-5H-cyclopenta[d]pyrimidine-2,4-diamine] |  |
|  | > 1000 | CNc1nc(Nc2ccc(OC(F)(F)F)cc2)nc2c1CCC2c1ccccc1 (stereo not shown) [Example 236, N4-methyl-7-phenyl-N2-(4-(trifluoromethoxy)phenyl)-6,7-dihydro-5H-cyclopenta[d]pyrimidine-2,4-diamine] |  |
|  | > 1000 | CNc1nc(Nc2ccc(C3(C#N)CCCC3)cc2)nc2c1CCC2c1ccccc1 (stereo not shown) [Example 244, 1-(4-(4-(methylamino)-7-phenyl-6,7-dihydro-5H-cyclopenta[d]pyrimidin-2-ylamino)phenyl)cyclopentanecarbonitrile] |  |
|  | 100 to 1000 | CNc1nc(Nc2ccc(C(F)(F)F)cc2)nc2c1CCC2c1ccccc1 (stereo not shown) [Example 239, N4-methyl-7-phenyl-N2-(4-(trifluoromethyl)phenyl)-6,7-dihydro-5H-cyclopenta[d]pyrimidine-2,4-diamine] |  |
|  | 10 to 100 | CNc1nc(Nc2ccc(C(C)=O)cc2)nc2c1CCC2c1ccccc1 (stereo not shown) [Example 257, 1-(4-(4-(methylamino)-7-phenyl-6,7-dihydro-5H-cyclopenta[d]pyrimidin-2-ylamino)phenyl)ethanone] |  |
| 100 to 1000 |  | CNc1nc(Nc2ccc(-n3cnc(C)n3)c(OC)c2)nc2c1CCC2c1ccc(F)cc1F (single isomer, unassigned) [Example 193A, 7-(2,4-difluorophenyl)-N2-(3-methoxy-4-(3-methyl-1H-1,2,4-triazol-1-yl)phenyl)-N4-methyl-6,7-dihydro-5H-cyclopenta[d]pyrimidine-2,4-diamine] |  |
